According to patent publication US20240285776A1, “SMALL MOLECULE-BASED BI-SPECIFIC IMMUNE CELL TETHERS AND THEIR USE IN THE TREATMENT OF ENVELOPED VIRUS INFECTION” (PURDUE RESEARCH FOUNDATION, priority 2021, published 2024):

Assays:
[1] = test system: Influenza A H1N1/PR8/1932 virus; design: species or system BALB/C mice; details: mouse, in vivo
[2] = test system: Influenza A Puerto Rico8/1934 (H1N1) virus; type: in vivo, BALB/C mice
influenza infection = test: Treatment of FRβ knockout mice following influenza infection; type: in vivo, folate receptor beta (FRβ) knockout mice; details: FRβ knockout mice treated following influenza infection
[3] = test system: Influenza A Puerto Rico/8/1934 (H1N1) virus; type: in vivo, BALB/C mice; details: for weight-loss phenomenon: 1.5 μmol/kg once daily for five consecutive days, linear PEG linkers compared to the DBCO-containing linker; for survival rate at the end of the experiment: mouse, in vivo

SMILES | body weight over time [1] | survival at the end of two weeks long experiment [1] | dose response of survival rate ([2]; […], 1.5, 0.5 and 0.17 μmol/kg once daily for five consecutive days) | survival rate ([2]; mouse, in vivo) [%] | survival at the end of the experiment (influenza infection) | weight-loss phenomenon [3] | survival rate at the end of the experiment [3] [%]
CC(=O)N[C@H]1[C@H]([C@H](OC(=O)NCCOCCOCCOCCOCCOCCOCCNC(=O)CC[C@H](NC(=O)c2ccc(NCc3cnc4nc(N)[nH]c(=O)c4n3)cc2)C(=O)O)[C@H](O)CO)OC(C(=O)O)=C[C@@H]1NC(=N)N [Compound 10] | did not lose any body weight | both the mice survived | increased with increasing dose | 100 | None of the mice survived | more pronounced | 90
CC(=O)N[C@H]1[C@H]([C@H](OC(=O)NCCOCCOCCOCCOCCOCCOCCOCCOCCOCCOCCOCCNC(=O)CC[C@H](NC(=O)c2ccc(NCc3cnc4nc(N)[nH]c(=O)c4n3)cc2)C(=O)O)[C@H](O)CO)OC(C(=O)O)=C[C@@H]1NC(=N)N [zan-PEG11-folate] |  |  |  |  |  | more pronounced | 100
